The values that follow come from PubChem BioAssay (NCI).

The structures appear in SMILES notation.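 The compound was tested at five concentrations on cells cultured in 96-well plates, with a 48-hour exposure period. TGI: total growth inhibition.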 Bounds are passed on as bounds.

Test systems include 786-0 renal; NCI-H23 lung; BT-549 breast; HT29 colon; CAKI-1 renal; IGROV1 ovarian; HCT-15 colon; T-47D breast; A549 NSCLC; NCI-H522 lung; SK-MEL-5 melanoma; SW-620 colon; HOP-92 NSCLC; SF-268 CNS; TK-10 renal; HS 578T breast; SK-MEL-2 melanoma; DU-145 prostate; SNB-75 CNS; HCC-2998 colon.
Common to all, as to assay: inhibition of tumour cell growth, NCI panel, 48 h

As to `CCCCCC1CC=CC(=O)O1` (stereo unspecified), the TGI in the assay on 786-0 renal came to 15.2 µM; in the assay on NCI-H23 lung it was 43 µM; in the assay with BT-549 breast, 33.7 µM; in the assay on HT29 colon, 17.8 µM; in the assay on CAKI-1 renal, 20.5 µM; with IGROV1 ovarian, 17.7 µM. Moreover, the TGI in the assay with HCT-15 colon turned out to be 21.9 µM; in the assay with T-47D breast it was 62.4 µM; in the assay on A549 NSCLC, 65.8 µM; in the assay with NCI-H522 lung, 9.71 µM; in the assay on SK-MEL-5 melanoma, 26.8 µM; in the assay with SW-620 colon it was 29.1 µM. Also, the TGI is 37.7 µM in the assay with HOP-92 NSCLC; 40.8 µM in the assay on SF-268 CNS; 38.1 µM in the assay on TK-10 renal; 88.5 µM in the assay with HS 578T breast; 23.5 µM with SK-MEL-2 melanoma; > 100 µM in the assay with DU-145 prostate.
As to `O=P1(Oc2ccccc2)N=P(c2ccccc2)(c2ccccc2)C=C(c2ccc(Cl)cc2)N1` (stereo unspecified), the TGI in the assay with 786-0 renal came to 28 µM; with NCI-H23 lung, 32.2 µM; in the assay on BT-549 breast it was 29.6 µM; in the assay with HT29 colon it was 15.5 µM; in the assay on CAKI-1 renal it was 23 µM; with IGROV1 ovarian it was 26.5 µM. For the same compound, the TGI was 21.9 µM in the assay with HCT-15 colon; 24.7 µM in the assay on T-47D breast; 16.1 µM in the assay with A549 NSCLC; 24.2 µM in the assay with NCI-H522 lung; 10.2 µM with SK-MEL-5 melanoma; 29.5 µM in the assay with SW-620 colon. The TGI in the assay on HOP-92 NSCLC was 25.4 µM; in the assay with SF-268 CNS, 26.2 µM; in the assay on TK-10 renal, 26.8 µM; in the assay with HS 578T breast, 43.5 µM; with SK-MEL-2 melanoma it was 27.6 µM; in the assay with DU-145 prostate, 26.9 µM.
For the compound `OCc1cc2c(ccc3sc4ccc5sc6ccc7ncccc7c6c5c4c32)s1`, the TGI was 15.1 µM in the assay on 786-0 renal; 38.6 µM in the assay with BT-549 breast; 39.7 µM with HT29 colon; 36.6 µM in the assay with CAKI-1 renal; 26.4 µM in the assay on IGROV1 ovarian; 33.6 µM with HCT-15 colon. Besides, the TGI in the assay on T-47D breast is 24.9 µM; in the assay with A549 NSCLC, 31.1 µM; in the assay with NCI-H522 lung, 27.6 µM; with SK-MEL-5 melanoma, 11.8 µM; in the assay with SW-620 colon it was > 100 µM; in the assay with HOP-92 NSCLC, > 100 µM. Also, the TGI was > 100 µM in the assay on TK-10 renal; 31.9 µM in the assay with HS 578T breast; 31.3 µM in the assay on SK-MEL-2 melanoma; 22.8 µM in the assay on SNB-75 CNS; 33.6 µM in the assay on DU-145 prostate.
`Nc1ccc2nc3c(nc2c1)C(=O)c1ccccc1-3`: the TGI in the assay on 786-0 renal, in the assay on NCI-H23 lung, in the assay with BT-549 breast, in the assay with HT29 colon, with IGROV1 ovarian and in the assay on HCT-15 colon was > 100 µM throughout. Moreover, the TGI with T-47D breast, in the assay on A549 NSCLC, in the assay with NCI-H522 lung, with SK-MEL-5 melanoma, with SW-620 colon and in the assay with HOP-92 NSCLC was > 100 µM in each case. For the same compound, the TGI in the assay on SF-268 CNS, in the assay on TK-10 renal, in the assay on HS 578T breast, in the assay on HCC-2998 colon, with SNB-75 CNS and in the assay on DU-145 prostate was > 100 µM throughout.
As to `C[Si](C)(C)C#Cc1cc(-c2nc3ccccc3s2)ccc1N`, the TGI worked out at 30.7 µM with 786-0 renal; 40.6 µM in the assay on NCI-H23 lung; 33.1 µM in the assay with BT-549 breast; 38.6 µM in the assay on HT29 colon; 31 µM in the assay on CAKI-1 renal; 13.2 µM in the assay on IGROV1 ovarian. The TGI is 32.1 µM in the assay with HCT-15 colon; > 100 µM in the assay on T-47D breast; 40.7 µM in the assay on A549 NSCLC; 27.3 µM in the assay on NCI-H522 lung; 29.4 µM in the assay on SK-MEL-5 melanoma; 35 µM in the assay with SW-620 colon. For the same compound, the TGI turned out to be 27.8 µM in the assay on HOP-92 NSCLC; 32.1 µM in the assay with SF-268 CNS; 26.2 µM in the assay on TK-10 renal; 51 µM in the assay on HS 578T breast; 27.5 µM with SNB-75 CNS; 62.1 µM in the assay with DU-145 prostate.
As to `O=Cc1c2n(c3ccccc13)N[C@@](Cc1ccc(O)cc1)(C(=O)O)C2`, the TGI in the assay on 786-0 renal, in the assay on NCI-H23 lung, in the assay on BT-549 breast, in the assay on HT29 colon, in the assay on CAKI-1 renal and in the assay on IGROV1 ovarian was > 100 µM in each case. In addition, the TGI with HCT-15 colon, in the assay on T-47D breast, with A549 NSCLC, in the assay with NCI-H522 lung, with SK-MEL-5 melanoma and in the assay with SW-620 colon was > 100 µM each time. Moreover, the TGI in the assay with HOP-92 NSCLC, in the assay on SF-268 CNS, in the assay with TK-10 renal, in the assay on HS 578T breast, in the assay with SK-MEL-2 melanoma and in the assay with DU-145 prostate was > 100 µM throughout.
On to `COC(=O)/C(=N\NC(N)=O)C(C(=O)C(=O)Nc1ccccc1OC)c1nc2ccc([N+](=O)[O-])cc2[nH]c1=O` (stereo unspecified), for which the TGI in the assay with 786-0 renal, in the assay with NCI-H23 lung, in the assay with BT-549 breast, in the assay with HT29 colon, in the assay with CAKI-1 renal and in the assay on IGROV1 ovarian was > 100 µM in each case. For the same compound, the TGI in the assay with HCT-15 colon, with T-47D breast, with A549 NSCLC, in the assay on NCI-H522 lung, in the assay on SK-MEL-5 melanoma and in the assay with SW-620 colon was > 100 µM each time. The TGI with HOP-92 NSCLC, in the assay on SF-268 CNS, in the assay with TK-10 renal, in the assay on HS 578T breast, in the assay with HCC-2998 colon and in the assay on SK-MEL-2 melanoma was > 100 µM each time. Moreover, in the assay on SNB-75 CNS, the TGI is > 100 µM.
